Experimental data from patent US8026237B2, “Pyrrole derivatives as pharmaceutical agents” (Exelixis, Inc., priority 2004, dated 2011).
≈ marks a conversion by molar mass, not a printed value.

Test system: not listed separately
Test: Kinetic solubility assay
Conditions: pH 7.4, aqueous buffer, kinetic from dmso stock
Procedure: The kinetic solubility of test compounds in buffer was evaluated using a 96 well filtration plate format. A 500 μM assay solution in PBS, pH7.4 (or other assay buffer, as needed) was generated form a DMSO stock solution (up to 10 mM). Samples were transferred to a 96 Millipore MultiScreen HTS 96-well Filter plate (Cat# MSSLBPC10) mixed by shaking for 1.5 hours and processed by filtration prior to quantitation by HPLC-UV. Amiodarone and testosterone were used as reference controls.

| SMILES | solubility kinetic at 1.5 h |
| --- | --- |
| C[C@]12CC[C@H]3[C@@H](CCC4=CC(=O)CC[C@@]43C)[C@@H]1CC[C@@H]2O [testosterone] | ~330 µM (≈ 95.2 µg/mL) |

Biological target: T1, human MR (GAL4-MR chimera, amino acids 671 to 984) (Homo sapiens, UniProt P08235)
T1 construct: expressed in transfected cells; host or cells: CV-1 (African Green Monkey Kidney Cells)
T1 sequence (P08235 671-984): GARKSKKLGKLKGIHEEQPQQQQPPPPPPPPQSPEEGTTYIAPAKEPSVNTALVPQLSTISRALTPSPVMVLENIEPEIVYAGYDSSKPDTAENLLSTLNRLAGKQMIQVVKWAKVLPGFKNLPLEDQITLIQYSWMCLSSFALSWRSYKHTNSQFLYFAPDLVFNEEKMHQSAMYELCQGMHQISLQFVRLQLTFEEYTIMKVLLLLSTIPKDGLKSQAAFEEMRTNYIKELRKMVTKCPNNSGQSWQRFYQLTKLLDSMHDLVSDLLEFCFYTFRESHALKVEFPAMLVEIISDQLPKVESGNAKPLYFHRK
Test: GAL4-MR cell based assay (antagonist format)
Conditions: not given
Procedure: Compound activity was determined in a cell-based assay using a GAL4-MR chimera to identify compounds with the ability to modulate MR activity.
The pCMX-GAL4-MR expression plasmid was constructed by cloning nucleotides encoding amino acids 671 to 984 of human MR (see GenBank sequence AAA59571) into the vector pCMX-GAL4 (Perlmann et al., 1993,Genes & Development 7:1411-1422) comprising nucleotides encoding for amino acids 1-147 of the GAL4 DNA binding domain.
The TK-MH100x4-Luc (GAL4UAS-TK-Luciferase) reporter construct was constructed by insertion of four copies of the Gal4 UAS (Kang et al. 1993, J. Biol. Chem. 268:9629-9635) into the Hind III site of TK-Luc. The parental plasmid, TK-Luc, was prepared by insertion of the Herpes simplex virus thymidine kinase gene promoter (−105 to +51) obtained from the plasmid pBLCAT2 by digestion with HindIII and XhoI (described in Luckow et al., 1987, Nuc. Acid. Res. 15:5490) into the plasmid MMTV-LUC described by Hollenberg and Evans, 1988, Cell 55:899-906) after removal of MMTV-LTR promoter sequence from MMTV-LUC via digestion with HindIII and XhoI. Correct cloning was confirmed by restriction digestion and/or sequencing.
Assays were performed using CV-1 (African Green Monkey Kidney Cells) (ATCC) cells grown in T175 flasks at a density of 3×10^6 cells/flask in DMEM with 5% FBS. Cells were transfected one day after plating at 70-80 percent confluency with a DNA mixture containing (per T175 flask) 9 μg pCMX-GAL4-MR, 9 μg TK-MH100x4-Luc, and 2 μg pCMX β-Gal using the transfection reagent FuGENE6 (Roche Molecular Biochemicals, Indianapolis, Ind.) following recommended protocols and instructions provided by the manufacturer, and incubated with transfection reagents for 5 hours at 37° C.
Transfected cells were trypsinized, resuspended in media, and 45 μL was added to assay plates at a density of approximately 5,000 cells/well using a MultiDrop dispenser (MTX Lab Systems, Inc., VA). The assay plates containing both compounds and screening cells were incubated for approximately 20 hours at 37° C. and 5% CO2 in a tissue culture incubator.
After incubation of the transfected cells with compounds, Lysis buffer (1% Triton X-100, 10% Glycerol, 5 mM DTT, 1 mM EGTA, 25 mM Tricine, pH 7.8) and Luciferin assay buffer (0.73 mM ATP, 22.3 mM Tricine, 0.11 mM EDTA, 33.3 mM DTT, 0.2M MgSO4, 11 mM Luciferin, 6.1 mM Coenzyme A, 0.01 mM HEPES, pH 7.8) were prepared. Media was removed from the plates and lysis buffer and luciferin assay buffer mixed in a 1:1 ratio and then 30 μl of the mixture was added to each well using a Multidrop dispenser. Plates were read on the Northstar (Applied Biosystems, Foster City, Calif.) and data was analyzed using ActivityBase (ID Business Solutions, Ltd., Guildford, Surrey, UK). If required, luciferase values may be normalized for transfection efficiency by measuring β-galactosidase activity based on expression from the pCMX-Gal expression plasmid as described previously (Willy et al., 1995, Gene & Development, 9:1033-1045).

| SMILES | IC50 |
| --- | --- |
| Cc1cc(C(=O)NCc2ccc(Oc3ccccc3)cc2)c(C)n1-c1ccccc1C(F)(F)F [2,5-dimethyl-1-(2-trifluoromethyl-phenyl)-1H-pyrrole-3-carboxylic acid 4-phenoxy-benzylamide] | 1000 to 5000 nM |
| Cc1cc(C(=O)Nc2cc(C(F)(F)F)ccc2F)c(C)n1-c1ccccc1C(F)(F)F [2,5-dimethyl-1-(2-trifluoromethyl-phenyl)-1H-pyrrole-3-carboxylic acid (2-fluoro-5-trifluoromethyl-phenyl)-amide] | 1000 to 5000 nM |
| Cc1cc(C(=O)NCCc2cccs2)c(C)n1-c1ccccc1C(F)(F)F [2,5-dimethyl-1-(2-trifluoromethyl-phenyl)-1H-pyrrole-3-carboxylic acid (2-thiophen-2-yl-ethyl)-amide] | 500 to 1000 nM |
| Cc1cc(C(=O)NCCc2ccccc2Cl)c(C)n1-c1ccccc1C(F)(F)F [2,5-dimethyl-1-(2-trifluoromethyl-phenyl)-1H-pyrrole-3-carboxylic acid [2-(2-chloro-phenyl)-ethyl]-amide] | 500 to 1000 nM |
| Cc1cc(C(=O)NCCc2cccc(Cl)c2)c(C)n1-c1ccccc1C(F)(F)F [2,5-dimethyl-1-(2-trifluoromethyl-phenyl)-1H-pyrrole-3-carboxylic acid [2-(3-chloro-phenyl)-ethyl]-amide] | 1000 to 5000 nM |
| Cc1cc(C(=O)NCCc2ccccc2)c(C)n1-c1ccccc1C(F)(F)F [2,5-dimethyl-1-(2-trifluoromethyl-phenyl)-1H-pyrrole-3-carboxylic acid phenethyl-amide] | < 500 nM |
